Where two headings read alike, the source gives them in different places.
Legend:
[1] = system: Zika virus, PR ABC strain (ZIKV, PR2015); test: Yield reduction assay followed by plaque assay in Vero cells, ZIKV PR2015; format: cell-based; conditions: 120 h, read-out: ZIKV, PR2015 IC50
Experimental: (§1) The iminosugar compounds set forth in Table 4, below, were evaluated for antiviral activity against Zika virus, FSS 13025 strain (ZIKV, Cambodia 2010) and PR ABC strain (ZIKV, PR2015) in an yield reduction assay followed by a plaque assay.
In the yield reduction assay, Vero cells were seeded in 24-well plates and incubated overnight. The next day, serial dilutions of a given compound were prepared at 200 μM, 100 μM, 20 μM, 4 μM, 0.8 μM, 0.16 μM, 0.03 μM, and 0.01 μM. Growth medium was removed from the cells and the serial dilutions of the given compound were added in duplicate for one hour. Zika virus, PR ABC strain (ZIKV, PR2015) was added at a multiplicity of infection (MOI) of 0.01 for one hour. Growth medium was added to 1 mL and the cells were incubated for 5 days. Thereafter, cell supernatants were harvested, cleared of cell debris by centrifugation, and stored at −80° C. until further analysis for viral content in a plaque assay.
Plaque assays were performed by seeding Vero cells in 24-well plates and allowing the cells to adhere overnight. The next day each of the harvested supernatants from the yield-reduction assay were serially diluted 10-fold, growth medium was removed from the cells, and the adhered cells were infected with the dilutions of the supernatants for 1 h. The cells were incubated with 0.8% carboxymethyl cellulose (CMC) for 3 days. At the end of the incubation, CMC overlay was removed, and the cells were permeabilized with an 80%/20% (V/V) mixture of ethanol and methanol for 10 min at −20° C. Plaques were visualized by performing an immunostaining assay with monoclonal 4G2 (ATCC) which was detected by HRP-conjugated goat anti-mouse antibody and visualized using HRP-conjugated goat anti-mouse polyclonal antibodies. Relative inhibition was calculated using IDBS XLFIT analysis program.
(§2) The duplicate titers for virus-only (vehicle control) were averaged and used as 0% inhibition. Efficacy data for the compounds were reported as the mean of the duplicates, including the standard deviation (SD) and coefficient of variation (% CV). FIGS. 2A, 2B, 3A, 3B, 4A, 4B, 5A, 5B, 6A, 6B, 7A, 7B, 8A, 8B, 9A, 9B, 10A, 10B, 11A, 11B, 12A, 12B, 13A, 13B, 14A, 14B, and 15 show the in vitro inhibitory effect of the iminosugar compounds against Zika virus, FSS 13025 strain, as set forth in Table 3 below.

[2] = In vitro cell cytotoxicity (CellTiter-Glo) in Vero cells; format: cell-based; conditions: African green monkey, 3-5 days, max concentration 500 or 1000 μM, * = average of two values
[3] = system: Zika virus, FSS 13025 strain (ZIKV, Cambodia 2010); test: Yield reduction assay followed by plaque assay in Vero cells, ZIKV Cambodia 2010; format: cell-based; conditions: for IC50: Zika virus, 96 h, read-out: ZIKV, Cambodian 2010 IC50; for IC50 (summary in words): summary of Table 3
Experimental: as §1
In the yield reduction assay, Vero cells were seeded in 24-well plates and incubated overnight. The next day, serial dilutions of a given compound were prepared at 300 μM, 100 μM, 30 μM, 10 μM, and 3.0 μM. Growth medium was removed from the cells and the serial dilutions of the given compound were added in duplicate for one hour. Zika virus, FSS 13025 strain (ZIKV, Cambodia 2010) was added at a multiplicity of infection (MOI) of 0.01 for one hour. Growth medium was added to 1 mL and the cells were incubated for 4 days. Thereafter, cell supernatants were harvested, cleared of cell debris by centrifugation, and stored at −80° C. until further analysis for viral content in a plaque assay.
Plaque assays were performed by seeding Vero cells in 24-well plates and allowing the cells to adhere overnight. The next day each of the harvested supernatants from the yield-reduction assay were serially diluted 10-fold, growth medium was removed from the cells, and the adhered cells were infected with the dilutions of the supernatants for 1 h. Methylcellulose was added and the cells were incubated for 3 days. Plaques were visualized by staining the cell monolayer with crystal violet. Relative inhibition was calculated using IDBS XLFIT analysis program.
as §2

[4] = system: Zika virus (isolate FSS13025 of the Asian genotype); test: Efficacy against lethal Zika virus infection in AG129 mice; format: in vivo; conditions: 1E2 FFU Zika virus, 750 mg/kg once daily for three days by oral gavage, starting 16 hours after exposure, vs vehicle (FIG. 1)
Experimental: AG129 mice, aged 5-7 weeks, of both sexes were divided into groups of eight mice each. Mice were infected with 1E2 FFU of Zika virus (isolate FSS13025 of the Asian genotype). The mice were treated 16 hours after exposure. One group was administered 750 mg/kg of UV-4 once daily for three days. UV-4 was formulated in water and all doses were administered via oral gavage in a volume of 100 μL. A control group was administered vehicle (water) only. Predefined study endpoints were mortality, euthanasia due to severe morbidity, or termination after 10 days total. Weights were measured and health scores were determined daily.

[5] = Vero cells, MOI 0.01, 5 days, plaque assay with immunostaining, * = average of multiple data points
[6] = Vero cells, MOI 0.01, 4 days, plaque assay of supernatants, * = average of multiple data points

| Structure (SMILES) | IC50 [1, 5] | IC50 [3, 6] | IC50 (summary in words) [3] | CC50 [2] | IC50 ([1]; Vero) | survival [4] | IC50 ([3]; Vero) |
| --- | --- | --- | --- | --- | --- | --- | --- |
| COCCCCCCCCCN1C[C@H](O)[C@@H](O)[C@H](O)[C@H]1CO [UV-4, (2R,3R,4R,5S)-2-(hydroxymethyl)-1-(9-methoxynonyl)piperidine-3,4,5-triol] | – | – | – | > 1000 µM | > 100 µM | statistically significant survival benefit | > 100 µM |
| [N-]=[N+]=Nc1ccc(NCCCCCCN2C[C@H](O)[C@@H](O)[C@H](O)[C@H]2CO)c([N+](=O)[O-])c1 [UV-5, (2R,3R,4R,5S)-1-(6-((4-azido-2-nitrophenyl)amino)hexyl)-2-(hydroxymethyl)piperidine-3,4,5-triol] | – | – | low micromolar activity | 77.3 µM | 5.24 µM | – | 4.42 µM |
| O=[N+]([O-])c1cc(N2CCOCC2)ccc1NCCCCCCN1C[C@H](O)[C@@H](O)[C@H](O)[C@H]1CO [Compound 8, (2R,3R,4R,5S)-2-(hydroxymethyl)-1-(6-((4-morpholino-2-nitrophenyl)amino)hexyl)piperidine-3,4,5-triol] | > 100 µM | > 100 µM | – | > 1000 µM | – | – | – |
| CN(C)Cc1ccc(NCCCCCCN2C[C@H](O)[C@@H](O)[C@H](O)[C@H]2CO)c([N+](=O)[O-])c1 [Compound 11, (2R,3R,4R,5S)-1-(6-((4-((dimethylamino)methyl)-2-nitrophenyl)amino)hexyl)-2-(hydroxymethyl)piperidine-3,4,5-triol] | > 100 µM | > 100 µM | – | > 1000 µM | – | – | – |

The next lines start with results.

| IC50 [1, 5] | IC50 [3, 6] | IC50 (summary in words) [3] | Structure (SMILES) | CC50 [2] | IC50 ([1]; Vero) | survival [4] | IC50 ([3]; Vero) |
| --- | --- | --- | --- | --- | --- | --- | --- |
| 69.6 µM | 45.7 µM | – | OC[C@@H]1[C@@H](O)[C@H](O)[C@@H](O)CN1CCCCCCCCC1CCCO1 (stereo partly drawn) [Compound 1, (2R,3R,4R,5S)-2-(hydroxymethyl)-1-(8-(tetrahydrofuran-2-yl)octyl)piperidine-3,4,5-triol] | > 500 µM | – | – | – |
| 150 µM | 12.1 µM | low micromolar activity | CN1CCN(Cc2ccc(NCCCCCCN3C[C@H](O)[C@@H](O)[C@H](O)[C@H]3CO)c([N+](=O)[O-])c2)CC1 [Compound 15, (2R,3R,4R,5S)-2-(hydroxymethyl)-1-(6-((4-((4-methylpiperazin-1-yl)methyl)-2-nitrophenyl)amino)hexyl)piperidine-3,4,5-triol] | > 1000 µM | – | – | – |
| 94.6 µM | 38.7 µM | low micromolar activity | [N-]=[N+]=Nc1ccc([N+](=O)[O-])c(NCCCCCCN2C[C@H](O)[C@@H](O)[C@H](O)[C@H]2CO)c1 [Compound 12, (2R,3R,4R,5S)-1-(6-((5-azido-2-nitrophenyl)amino)hexyl)-2-(hydroxymethyl)piperidine-3,4,5-triol] | 140 µM | – | – | – |
| 12.6 µM | 10.1 µM | low micromolar activity | COC(C)(C)CCCCCCCCN1C[C@H](O)[C@@H](O)[C@H](O)[C@H]1CO [Compound 2, (2R,3R,4R,5S)-2-(hydroxymethyl)-1-(9-methoxy-9-methyldecyl)piperidine-3,4,5-triol] | > 500 µM | – | – | – |

From patent US20190282558A1, “Methods of Treating Zika Virus Infection” (Emergent Virology LLC, priority 2016, published 2019)
